Measurements from ChEMBL document CHEMBL4665898, “Semisynthetic Analogs of the Antibiotic Fidaxomicin-Design, Synthesis, and Biological Evaluation” (ACS Med Chem Lett, 2020).

Tested on: Mycobacterium tuberculosis
Experiment: Antimycobacterial activity against multi-drug resistant Mycobacterium tuberculosis after 5 days in presence of 7H9 medium by CLSI-based broth microdilution method
Type: functional
Conditions: 120 h, time 5 day

Question: Which MIC does the source give for `CCc1c(Cl)c(O)c(Cl)c(O)c1C(=O)O[C@@H]1[C@@H](O)[C@@H](OC)[C@@H](OC/C2=C\C=C\C[C@H](O)/C(C)=C/[C@H](CC)[C@@H](O[C@@H]3OC(C)(C)[C@@H](OC(=O)C(C)C)[C@H](O)[C@@H]3O)/C(C)=C/C(C)=C/C[C@@H]([C@@H](C)O)OC2=O)O[C@H]1C` here?
Answer: < 8 ng/mL
